{
  "source": "patent US20040038984A1",
  "about": "“Composition for male & female sexual arousal” (priority 2002, published 2004)",
  "origin": "cited, not measured here",
  "conditions": "following oral administration",
  "data": [
    {"smiles": "Cn1cc([S+](C)[O-])c(=O)c2ccc(F)cc21", "note": "(stereo not shown) [flosequinan]", "values": [
      {"measurement": "time of peak plasma concentrations", "value": "1 to 2", "unit": "h"}
    ]}
  ]
}
